Test results from US10703748B2, “Diazanaphthalen-3-yl carboxamides and preparation and use thereof” (Samumed, LLC, priority 2017, dated 2020).

Experiments:
[1] = tested on: IL-6; assay: IL-6 inhibition in LPS-stimulated human peripheral blood mononuclear cells (HTRF); details: Homo sapiens, PBMC; for EC50: 22 h; for inhibition at 10 µM: read-out: percentage in parentheses after EC50 >10
[2] = tested on: Wnt-responsive Sp5-Luc reporter in SW480 colon carcinoma cells; assay: Screening assay for Wnt activity (Sp5-Luc reporter gene assay); details: Homo sapiens; for EC50: SW480; for inhibition at 10 µM: SW480, read-out: percent inhibition at 10 μM
[3] = molecular target: GSK3β kinase (Homo sapiens, UniProt P49841); assay: GSK3β kinase activity (Ser/Thr 09 peptide Z-lyte FRET assay); type: biochemical; details: recombinant kinase, 46 μM ATP, one hour at room temperature; read-out: EC50
[4] = tested on: α-smooth muscle actin (aSMA) positive LL29 cells; assay: Inhibition of the fibrotic process: αSMA staining in TGF-β1 treated LL29 fibroblasts from IPF patients; details: Homo sapiens, Fibroblast; for EC50: 96 h; for inhibition at 10 µM: read-out: percentage in parentheses after EC50 >10
[5] = tested on: SW480 colon carcinoma cells; assay: Cell viability assay (CellTiter-Glo); details: Homo sapiens; for EC50: SW480, 96 h; for inhibition at 10 µM: SW480, read-out: percent inhibition at 10 μM
[6] = molecular target: DYRK1A kinase (Homo sapiens, UniProt Q13627); assay: DYRK1A kinase activity (Ser/Thr 18 peptide Z-lyte FRET assay); type: biochemical; details: recombinant DYRK1A, 30 μM ATP, one hour at room temperature;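 also: kinase activity read as coumarin/fluorescein emission ratio after development step, with unphosphorylated and phosphorylated peptide forms setting 0% and 100% controls, values from dose-response curves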

GSK3β kinase, sequence (P49841 whole entry): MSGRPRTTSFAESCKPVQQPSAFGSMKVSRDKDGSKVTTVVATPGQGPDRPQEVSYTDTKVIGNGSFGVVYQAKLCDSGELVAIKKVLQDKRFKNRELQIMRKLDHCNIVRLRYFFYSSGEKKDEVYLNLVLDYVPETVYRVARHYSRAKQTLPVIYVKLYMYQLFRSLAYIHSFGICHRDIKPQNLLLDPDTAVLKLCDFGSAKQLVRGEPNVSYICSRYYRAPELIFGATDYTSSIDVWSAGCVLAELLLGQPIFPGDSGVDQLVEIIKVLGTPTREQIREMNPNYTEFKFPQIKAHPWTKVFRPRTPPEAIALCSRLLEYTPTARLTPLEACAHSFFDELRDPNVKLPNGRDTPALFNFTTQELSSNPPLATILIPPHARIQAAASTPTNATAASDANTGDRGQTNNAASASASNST

Row | Compound | EC50 [1] [µM] | EC50 [2] [µM] | EC50 [3] [µM] | EC50 [4] [µM] | EC50 [5] [µM] | EC50 [6] [µM] | inhibition at 10 µM [1] [%] | inhibition at 10 µM [2] [%] | inhibition at 10 µM [5] [%] | inhibition at 10 µM [4] [%]
1 | CN1CCC(c2nc(C(=O)Nc3cc4nc(-c5cnn(C)c5)ccc4cn3)co2)CC1 [Compound 242, N-(2-(1-Methyl-1H-pyrazol-4-yl)-1,6-naphthyridin-7-yl)-2-(1-methylpiperidin-4-yl)oxazole-4-carboxamide] | 3.62 | 0.268 | 6.85 | 1.42 | 0.541 | 0.06 | – | – | – | –
2 | CC(C)CN1CCC(C(=O)Nc2cc3cc(-c4nnnn4C)cnc3cn2)CC1 [Compound 3118, 1-Isobutyl-N-(3-(1-methyl-1H-tetrazol-5-yl)-1,7-naphthyridin-6-yl) piperidine-4-carboxamide] | > 10 | > 10 | > 10 | 4.91 | > 10 | 1.48 | 5.3 | 31.2 | 8.3 | –
3 | Cn1cncc1-c1ccc2cnc(NC(=O)C3CCC(F)(F)CC3)cc2n1 [Compound 400, 4,4-Difluoro-N-(2-(1-methyl-1H-imidazol-5-yl)-1,6-naphthyridin-7-yl) cyclohexane-1-carboxamide] | 3.66 | 1.35 | 0.036 | 1.48 | 2.37 | 0.121 | – | – | – | –
4 | CN1CCC(C(=O)Nc2cc3nc(-c4cnsc4)ccc3cn2)CC1 [Compound 692, N-(2-(Isothiazol-4-yl)-1,6-naphthyridin-7-yl)-1-methylpiperidine-4-carboxamide] | 6.73 | > 10 | > 10 | > 10 | > 10 | 1.01 | – | 38.6 | 28.7 | 3.8
5 | Cc1ncc(-c2ccc3cnc(NC(=O)N4CCC(N(C)C)CC4)cc3n2)s1 [Compound 662, 4-(Dimethylamino)-N-(2-(2-methylthiazol-5-yl)-1,6-naphthyridin-7-yl) piperidine-1-carboxamide] | > 10 | > 10 | > 10 | 7.65 | > 10 | > 10 | 10.5 | 26 | 17.3 | –
6 | Cn1cnnc1-c1cnc2cnc(NC(=O)C3CCN(CCC(F)(F)F)CC3)cc2c1 [Compound 3111, N-(3-(4-Methyl-4H-1,2,4-triazol-3-yl)-1,7-naphthyridin-6-yl)-1-(3,3,3-trifluoropropyl)piperidine-4-carboxamide] | > 10 | > 10 | 2.14 | > 10 | > 10 | 0.377 | 7.5 | 9.7 | 16.1 | 46.4
7 | CC(F)(F)CN1CCC(C(=O)Nc2cc3cc(-c4cnco4)ncc3cn2)CC1 [Compound 4167, 1-(2,2-Difluoropropyl)-N-(6-(oxazol-5-yl)-2,7-naphthyridin-3-yl)piperidine-4-carboxamide] | > 10 | > 10 | 0.127 | > 10 | > 10 | 3.2 | 4.9 | 8.9 | 11.9 | 43
8 | Cc1ncc(-c2ccc3cnc(NC(=O)C(C)N4CCCCC4)nc3c2)n1C (stereo not shown) [Compound 4576, N-(7-(1,2-Dimethyl-1H-imidazol-5-yl)quinazolin-2-yl)-2-(piperidin-1-yl) propanamide] | > 10 | > 10 | 0.346 | > 10 | > 10 | 0.675 | 0 | 35.3 | 22.1 | 38.3
9 | CN(C)C1CCN(c2cc(C(=O)Nc3cc4cc(-c5cn(C)nn5)cnc4cn3)ccn2)CC1 [Compound 3096, 2-(4-(Dimethylamino)piperidin-1-yl)-N-(3-(1-methyl-1H-1,2,3-triazol-4-yl)-1,7-naphthyridin-6-yl)isonicotinamide] | > 10 | 0.596 | > 10 | > 10 | 4.09 | 0.119 | 0 | – | – | 32.7
10 | CCN(CC)CC(=O)Nc1cc2cc(-c3cnn(C)c3CN3CCCCC3)cnc2cn1 [Compound 3003, 2-(Diethylamino)-N-(3-(1-methyl-5-(piperidin-1-ylmethyl)-1H-pyrazol-4-yl)-1,7-naphthyridin-6-yl)acetamide] | > 10 | > 10 | 1.52 | > 10 | > 10 | 0.067 | 7.3 | 33.5 | 35.9 | 27.8
11 | Cc1nnc(-c2cnc3cnc(NC(=O)C4CCN(C(=O)c5ccccc5)CC4)cc3c2)s1 [Compound 3439, 1-Benzoyl-N-(3-(5-methyl-1,3,4-thiadiazol-2-yl)-1,7-naphthyridin-6-yl) piperidine-4-carboxamide] | > 10 | > 10 | 0.463 | > 10 | > 10 | 0.1 | 12.7 | 2.1 | 16.8 | 14.3
12 | Cn1cncc1-c1ccc2cnc(NC(=O)C3CCC(F)(F)CC3)nc2c1 [Compound 1306, 4,4-Difluoro-N-(7-(1-methyl-1H-imidazol-5-yl)quinazolin-2-yl)cyclohexane-1-carboxamide] | 8.81 | > 10 | 0.377 | 1.8 | > 10 | 0.391 | – | 42.4 | 43.7 | –
13 | CC(C)CN1CCC(CC(=O)Nc2ncc3ccc(-c4cnn(C)c4)cc3n2)C1 (stereo not shown) [Compound 1029, 2-(1-Isobutylpyrrolidin-3-yl)-N-(7-(1-methyl-1H-pyrazol-4-yl)quinazolin-2-yl)acetamide] | > 10 | 2.91 | 0.238 | > 10 | > 10 | 0.045 | 3.2 | – | 38.5 | 28
14 | Cn1cncc1-c1ccc2cnc(NC(=O)c3ccc(F)cc3)cc2n1 [Compound 448, 4-Fluoro-N-(2-(1-methyl-1H-imidazol-5-yl)-1,6-naphthyridin-7-yl)benzamide] | 5.13 | > 10 | > 10 | > 10 | > 10 | > 10 | – | 2.8 | 16.2 | 23
15 | CC(C(=O)Nc1cc2cc(-c3cnn(C)c3)cnc2cn1)N1CCCCC1 (stereo not shown) [Compound 2791, N-(3-(1-Methyl-1H-pyrazol-4-yl)-1,7-naphthyridin-6-yl)-2-(piperidin-1-yl) propanamide] | > 10 | > 10 | 3.47 | 6.13 | > 10 | 0.513 | 5.3 | 10.5 | 24.8 | –
16 | Cn1nnnc1-c1ccc2cnc(NC(=O)C3CCN(CCC(F)(F)F)CC3)nc2c1 [Compound 4574, N-(7-(1-Methyl-1H-tetrazol-5-yl)quinazolin-2-yl)-1-(3,3,3-trifluoropropyl) piperidine-4-carboxamide] | > 10 | 3.87 | 0.665 | > 10 | > 10 | 1.41 | 5.7 | – | 20.2 | 32.8
17 | Cn1cc(-c2cnc3cnc(NC(=O)c4ccc5nccnc5c4)cc3c2)cn1 [Compound 2936, N-(3-(1-Methyl-1H-pyrazol-4-yl)-1,7-naphthyridin-6-yl)quinoxaline-6-carboxamide] | > 10 | > 10 | > 10 | > 10 | > 10 | > 10 | 8.3 | 11.9 | 17.8 | 21.6
18 | Cn1cc(-c2ccc3cnc(NC(=O)C4CCN(CC5(C)COC5)CC4)nc3c2)nn1 [Compound 1254, N-(7-(1-Methyl-1H-1,2,3-triazol-4-yl)quinazolin-2-yl)-1-((3-methyloxetan-3-yl)methyl)piperidine-4-carboxamide] | > 10 | > 10 | 0.069 | 6.97 | > 10 | 0.104 | 3.8 | 31.7 | 11.2 | –
19 | Cn1cc(-c2ccc3cnc(NC(=O)[C@H]4CC[C@H](NC(=O)OC(C)(C)C)CC4)cc3n2)cn1 [Compound 4537, tert-Butyl (trans-4-((2-(1-methyl-1H-pyrazol-4-yl)-1,6-naphthyridin-7-yl)carbamoyl)cyclohexyl)carbamate] | > 10 | > 10 | 0.543 | 5.27 | > 10 | 0.035 | 3 | 25.3 | 4.7 | –
